# Experimental data from patent US20150197492A1, “NOVEL INDENO[1,2-c]QUINOLIN-11-ONE DERIVATIVES, PREPARATION METHOD AND APPLICATION THEREOF” (National Defense Medical Center, priority 2014, published 2015).
# Assays:
# human PC-3 cells = test: Sulforhodamine B (SRB) assay, cytotoxicity against PC-3 cells; assay type: cell-based; conditions: SRB assay, PC-3 cells
# Method: Add 5% Fetal Bovine Serum (FBS) to 96-well plate and fix the cells with 10% TCA after 24 hours of incubation and add the compound (T0). Add DMSO and culture for another 48 hours and the cells are fixed in 0.4% (W/V), 10% TCA and SRB, and […]. Excess SRB is washed off by 1% acetic acid and cells stained with SRB are dissolved in 10 mmol/L Trizma base. The absorbance is measured at 515 nm. The treatment time is 0 (T0), control growth (C) and the increase of the compound (Tx) in the cells are shown below and are used to calculate the increase of the concentration of the compound in percentage. Growth inhibition (GI %) is calculated using the following formula 100−[(TX−T0)/(C−T0)]×100. The 50% growth inhibition concentration (IC50) is used to confirm the concentration of compound and thus results in 50% reduction of the treated cells which control the amount of total protein.
# This part of experimental results are SRB assays measuring cytotoxicity of the 26 synthesized compounds against human PC-3 cells and are summarized in Table 1 and 2.
# Solubility in DMSO = assay type: physicochemical; conditions: order SJ-2<SJ-24<SJ-3<SJ-11
# Source text: The solubility of the four compounds in DMSO is poor, SJ-2<SJ-24<SJ-3<SJ-11, and therefore it is estimated and this is the reason why the three compounds which have previously proven to be effective against PC-3 cell line by SRB assays are ineffective in this experiment.
Structure (SMILES),Toxicity (%) (human PC-3 cells),GI % (10 μM) (human PC-3 cells) [%],melting point [°C],solubility in DMSO (Solubility in DMSO)
"O=C1c2cc(Cl)ccc2-c2c(N3CCN(Cc4ccccc4)CC3)nc3ccccc3c21 [SJ-17, 6-(4-Benzylpiperazin-1-yl)-9-chloro-11H-indeno[1,2-c]quinolin-11-one]",0,73.53,178 to 180,
"O=C1c2cc(Cl)ccc2-c2c(N3CCCCCC3)nc3ccccc3c21 [SJ-7, 6-(Azepan-1-yl)-9-chloro-11H-indeno[1,2-c]quinolin-11-one]",41.7,100,146 to 147,
"O=C1c2cc(Cl)ccc2-c2c(N3CCC(N4CCCCC4)CC3)nc3ccccc3c21 [SJ-15, 9-Chloro-6-(4-(piperidin-1-yl)piperidin-1-yl)-11H-indeno[1,2-c]quinolin-11-one]",0,98.83,174 to 175,
"O=C1c2cc(Cl)ccc2-c2c(N3CCN(c4ccccc4F)CC3)nc3ccccc3c21 [SJ-18, 9-Chloro-6-(4-(2-fluorophenyl)piperazin-1-yl)-11H-indeno[1,2-c]quinolin-11-one]",0,85.48,182 to 183,
"CN1CCC(N2CCN(c3nc4ccccc4c4c3-c3ccc(Cl)cc3C4=O)CC2)CC1 [SJ-21, 9-Chloro-6-(4-(1-methylpiperidin-4-yl)piperazin-1-yl)-11H-inden o[1,2-c]quinolin-11-one]",66,100,208 to 209,
"CCN1CCN(c2nc3ccccc3c3c2-c2ccc(Cl)cc2C3=O)CC1 [SJ-13, 9-Chloro-6-(4-ethylpiperazin-1-yl)-11H-indeno[1,2-c]quinolin-11-one]",29.7,100,182 to 184,
"O=C1c2cc(Cl)ccc2-c2c(N3CCC(CCCC4CCNCC4)CC3)nc3ccccc3c21 [SJ-24, 9-Chloro-6-(4-(3-(piperidin-4-yl)propyl)piperidin-1-yl)-11H-indeno[1,2-c]quinolin-11-one]",63.8,100,149 to 151,poor
"COc1ccccc1N1CCN(c2nc3ccccc3c3c2-c2ccc(Cl)cc2C3=O)CC1 [SJ-19, 9-Chloro-6-(4-(2-methoxyphenyl)piperazin-1-yl)-11H-indeno[1,2-c]quinolin-11-one]",8.5,100,129 to 131,
O=C1c2cc(Cl)ccc2-c2c(N3CCC4(CC3)OCCO4)nc3ccccc3c21 [SJ-22],42.6,100,218 to 219,
"O=C1c2cc(Cl)ccc2-c2c(N3CCCCC3)nc3ccccc3c21 [SJ-5, 9-Chloro-6-(piperidin-1-yl)-11H-indeno[1,2-c]quinolin-11-one]",22.2,100,191 to 192,
"O=C1c2cc(Cl)ccc2-c2c(N3CCCC3)nc3ccccc3c21 [SJ-4, 9-Chloro-6-(pyrrolidin-1-yl)-11H-indeno[1,2-c]quinolin-11-one]",47.2,100,149 to 150,
